Results on one molecule are retold here after publication PMC6700816, “A novel starch-binding laccase from the wheat pathogen Zymoseptoria tritici highlights the functional diversity of ascomycete laccases” (BMC Biotechnology, 2019).

The structures appear in SMILES notation.

This assay has as its target T1, ZtrLac1A (Zymoseptoria tritici, UniProt F9XCG9).
T1 construct: gene MYCGRDRAFT_109666; mature protein residues 46-723, native signal peptide removed; catalytic module (556 residues) plus linker plus CBM20; secreted by Pichia pastoris X-33 (pPICZalphaA); N-glycosylated; 79 kDa calculated, 93 kDa on SDS-PAGE; EC 1.10.3.2
T1 sequence (F9XCG9 46-723): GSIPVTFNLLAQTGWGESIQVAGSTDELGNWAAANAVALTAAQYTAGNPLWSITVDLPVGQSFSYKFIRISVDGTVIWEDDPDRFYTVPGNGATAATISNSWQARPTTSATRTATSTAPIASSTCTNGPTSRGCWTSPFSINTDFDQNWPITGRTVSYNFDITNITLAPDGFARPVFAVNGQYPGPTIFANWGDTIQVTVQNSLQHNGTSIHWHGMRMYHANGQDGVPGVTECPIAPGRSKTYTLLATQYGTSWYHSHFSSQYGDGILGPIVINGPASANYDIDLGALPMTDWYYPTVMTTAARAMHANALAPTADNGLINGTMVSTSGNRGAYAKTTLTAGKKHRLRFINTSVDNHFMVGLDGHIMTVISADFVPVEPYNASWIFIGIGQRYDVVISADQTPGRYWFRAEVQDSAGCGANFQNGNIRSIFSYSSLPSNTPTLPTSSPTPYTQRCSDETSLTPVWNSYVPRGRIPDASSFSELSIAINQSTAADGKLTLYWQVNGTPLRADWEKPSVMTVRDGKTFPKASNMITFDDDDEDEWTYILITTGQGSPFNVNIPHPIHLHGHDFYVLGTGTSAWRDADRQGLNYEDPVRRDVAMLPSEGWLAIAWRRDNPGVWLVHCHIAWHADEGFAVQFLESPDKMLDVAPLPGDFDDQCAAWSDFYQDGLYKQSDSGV
The experiment in a line: isothermal titration calorimetry, one-site model. The conditions noted are these: 20 mM sodium acetate, pH 5.5, 25 °C; starch mimic, CBM20 starch-binding module, not the laccase active site. The source says:
isothermal titration calorimetry, one-site model on ZtrLac1A | ZtrLac1A binds to β-CD with an association constant of Ka
For orientation: ITC needs no label: the signal is the heat of the interaction.

In the case of `OC[C@H]1O[C@@H]2O[C@H]3[C@H](O)[C@@H](O)[C@@H](O[C@H]4[C@H](O)[C@@H](O)[C@@H](O[C@H]5[C@H](O)[C@@H](O)[C@@H](O[C@H]6[C@H](O)[C@@H](O)[C@@H](O[C@H]7[C@H](O)[C@@H](O)[C@@H](O[C@H]8[C@H](O)[C@@H](O)[C@@H](O[C@H]1[C@H](O)[C@H]2O)O[C@@H]8CO)O[C@@H]7CO)O[C@@H]6CO)O[C@@H]5CO)O[C@@H]4CO)O[C@@H]3CO` [β-CD, β-cyclodextrin], binding was put at a Kd of 32.6 ± 2.4 µM.

By Kd is commonly meant the concentration at which binding is half-saturated. Higher therefore signals lower affinity.
